Test results published in the NIST ThermoML archive (doi:10.1016/j.jct.2015.06.005).
Numbers after ± are expanded uncertainties.

Experiment: xn = mol fraction of the nth substance listed
Conditions: 100 kPa, Liquid; for speed of sound: Frequency=3 MHz, Sing-around technique in a fixed-path interferometer; for mass density: Vibrating tube method

## CCCCCCCCN1CCCC1=O [N-octyl-2-pyrrolidone] + CCCCn1cc[n+](C)c1.F[B-](F)(F)F
298.15 K, x2 = 0
  speed of sound: 1450.2 ± 6.1 m/s
  mass density: 918.45 ± 1 kg/m3
298.15 K, x2 = 0.1084
  speed of sound: 1454.9 ± 6.1 m/s
  mass density: 945.54 ± 1 kg/m3
298.15 K, x2 = 0.196
  speed of sound: 1457.4 ± 6.1 m/s
  mass density: 965.52 ± 1 kg/m3
298.15 K, x2 = 0.3023
  speed of sound: 1461.3 ± 6.1 m/s
  mass density: 991.51 ± 1 kg/m3
298.15 K, x2 = 0.4087
  speed of sound: 1467.5 ± 6.1 m/s
  mass density: 1020.1 ± 1 kg/m3
298.15 K, x2 = 0.5064
  speed of sound: 1474 ± 6.1 m/s
  mass density: 1045.47 ± 1 kg/m3
298.15 K, x2 = 0.6027
  speed of sound: 1485.8 ± 6.1 m/s
  mass density: 1074.31 ± 1 kg/m3
298.15 K, x2 = 0.6981
  speed of sound: 1499.9 ± 6.1 m/s
  mass density: 1103.56 ± 1 kg/m3
298.15 K, x2 = 0.7966
  speed of sound: 1517.6 ± 6.1 m/s
  mass density: 1133.07 ± 1 kg/m3
298.15 K, x2 = 0.8978
  speed of sound: 1539.8 ± 6.1 m/s
  mass density: 1164.87 ± 1.1 kg/m3
303.15 K, x2 = 0
  speed of sound: 1432.6 ± 6.1 m/s
  mass density: 914.8 ± 1 kg/m3
303.15 K, x2 = 0.1084
  speed of sound: 1438.3 ± 6.1 m/s
  mass density: 941.91 ± 1 kg/m3
303.15 K, x2 = 0.196
  speed of sound: 1441.3 ± 6.1 m/s
  mass density: 961.89 ± 1 kg/m3
303.15 K, x2 = 0.3023
  speed of sound: 1445.3 ± 6.1 m/s
  mass density: 987.89 ± 1 kg/m3
303.15 K, x2 = 0.4087
  speed of sound: 1452.1 ± 6.1 m/s
  mass density: 1016.54 ± 1 kg/m3
303.15 K, x2 = 0.5064
  speed of sound: 1459.2 ± 6.1 m/s
  mass density: 1041.86 ± 1 kg/m3
303.15 K, x2 = 0.6027
  speed of sound: 1471.7 ± 6.1 m/s
  mass density: 1070.71 ± 1 kg/m3
303.15 K, x2 = 0.6981
  speed of sound: 1486 ± 6.1 m/s
  mass density: 1099.98 ± 1 kg/m3
303.15 K, x2 = 0.7966
  speed of sound: 1504.5 ± 6.1 m/s
  mass density: 1129.48 ± 1 kg/m3
303.15 K, x2 = 0.8978
  speed of sound: 1527.3 ± 6.1 m/s
  mass density: 1161.29 ± 1.1 kg/m3
308.15 K, x2 = 0
  speed of sound: 1415.3 ± 6.1 m/s
  mass density: 911.14 ± 1 kg/m3
308.15 K, x2 = 0.1084
  speed of sound: 1421.6 ± 6.1 m/s
  mass density: 938.28 ± 1 kg/m3
308.15 K, x2 = 0.196
  speed of sound: 1424.9 ± 6.1 m/s
  mass density: 958.26 ± 1 kg/m3
308.15 K, x2 = 0.3023
  speed of sound: 1429.4 ± 6.1 m/s
  mass density: 984.27 ± 1 kg/m3
308.15 K, x2 = 0.4087
  speed of sound: 1436.8 ± 6.1 m/s
  mass density: 1012.96 ± 1 kg/m3
308.15 K, x2 = 0.5064
  speed of sound: 1444.4 ± 6.1 m/s
  mass density: 1038.25 ± 1 kg/m3
308.15 K, x2 = 0.6027
  speed of sound: 1457.4 ± 6.1 m/s
  mass density: 1067.16 ± 1 kg/m3
308.15 K, x2 = 0.6981
  speed of sound: 1472.3 ± 6.1 m/s
  mass density: 1096.42 ± 1 kg/m3
308.15 K, x2 = 0.7966
  speed of sound: 1491.4 ± 6.1 m/s
  mass density: 1125.91 ± 1 kg/m3
308.15 K, x2 = 0.8978
  speed of sound: 1514.9 ± 6.1 m/s
  mass density: 1157.71 ± 1.1 kg/m3
313.15 K, x2 = 0
  speed of sound: 1398 ± 6.1 m/s
  mass density: 907.49 ± 1 kg/m3
313.15 K, x2 = 0.1084
  speed of sound: 1405 ± 6.1 m/s
  mass density: 934.64 ± 1 kg/m3
313.15 K, x2 = 0.196
  speed of sound: 1408.7 ± 6.1 m/s
  mass density: 954.63 ± 1 kg/m3
313.15 K, x2 = 0.3023
  speed of sound: 1413.7 ± 6.1 m/s
  mass density: 980.66 ± 1 kg/m3
313.15 K, x2 = 0.4087
  speed of sound: 1421.6 ± 6.1 m/s
  mass density: 1009.39 ± 1 kg/m3
313.15 K, x2 = 0.5064
  speed of sound: 1429.7 ± 6.1 m/s
  mass density: 1034.65 ± 1 kg/m3
313.15 K, x2 = 0.6027
  speed of sound: 1443.3 ± 6.1 m/s
  mass density: 1063.63 ± 1 kg/m3
313.15 K, x2 = 0.6981
  speed of sound: 1458.8 ± 6.1 m/s
  mass density: 1092.9 ± 1 kg/m3
313.15 K, x2 = 0.7966
  speed of sound: 1478.6 ± 6.1 m/s
  mass density: 1122.36 ± 1 kg/m3
313.15 K, x2 = 0.8978
  speed of sound: 1502.7 ± 6.1 m/s
  mass density: 1154.16 ± 1.1 kg/m3
318.15 K, x2 = 0
  speed of sound: 1380.9 ± 6.1 m/s
318.15 K, x2 = 0.1084
  speed of sound: 1388.6 ± 6.1 m/s
318.15 K, x2 = 0.196
  speed of sound: 1392.7 ± 6.1 m/s
318.15 K, x2 = 0.3023
  speed of sound: 1398.2 ± 6.1 m/s
318.15 K, x2 = 0.4087
  speed of sound: 1406.6 ± 6.1 m/s
318.15 K, x2 = 0.5064
  speed of sound: 1415.2 ± 6.1 m/s
318.15 K, x2 = 0.6027
  speed of sound: 1429.4 ± 6.1 m/s
318.15 K, x2 = 0.6981
  speed of sound: 1445.5 ± 6.1 m/s
318.15 K, x2 = 0.7966
  speed of sound: 1465.9 ± 6.1 m/s
318.15 K, x2 = 0.8978
  speed of sound: 1490.6 ± 6.1 m/s
